Reference: ChEMBL document CHEMBL1153065, “Synthesis, radiolabeling and preliminary in vivo evaluation of [18F]FE-PE2I, a new probe for the dopamine transporter” (Bioorg Med Chem Lett, 2009)
pKi: −log10 of the molar value.

Legend:
[1] = target: Sodium-dependent dopamine transporter (Rattus norvegicus, UniProt P23977); experiment: Displacement of [125I]PE2I from rat DAT
[2] = system: Brain; experiment: Drug uptake in cynomolgus monkey brain at 59 MBq after 13 mins; format: ADME, tissue-based, Macaca fascicularis; conditions: in vivo
[3] = Ratio of drug uptake in cerebellum to caudate in cynomolgus monkey at 59 MBq after 105 mins; format: ADME, Macaca fascicularis; conditions: in vivo, 1.75 h
[4] = Ratio of drug uptake in cerebellum to putamen in cynomolgus monkey at 59 MBq after 105 mins; format: ADME, Macaca fascicularis; conditions: in vivo, 1.75 h
[5] = Ratio of drug uptake in cerebellum to caudate in cynomolgus monkey by GBR-12909 displacement assay; set-up: species or system Macaca fascicularis; conditions: in vivo
[6] = Ratio of drug uptake in cerebellum to putamen in cynomolgus monkey by GBR-12909 displacement assay; set-up: species or system Macaca fascicularis; conditions: in vivo
[7] = system: Plasma; experiment: Metabolic stability in cynomolgus monkey venous plasma assessed as compound recovery by radio-HPLC; format: ADME, cell-free, Macaca fascicularis

Sequence of Sodium-dependent dopamine transporter (P23977 whole entry): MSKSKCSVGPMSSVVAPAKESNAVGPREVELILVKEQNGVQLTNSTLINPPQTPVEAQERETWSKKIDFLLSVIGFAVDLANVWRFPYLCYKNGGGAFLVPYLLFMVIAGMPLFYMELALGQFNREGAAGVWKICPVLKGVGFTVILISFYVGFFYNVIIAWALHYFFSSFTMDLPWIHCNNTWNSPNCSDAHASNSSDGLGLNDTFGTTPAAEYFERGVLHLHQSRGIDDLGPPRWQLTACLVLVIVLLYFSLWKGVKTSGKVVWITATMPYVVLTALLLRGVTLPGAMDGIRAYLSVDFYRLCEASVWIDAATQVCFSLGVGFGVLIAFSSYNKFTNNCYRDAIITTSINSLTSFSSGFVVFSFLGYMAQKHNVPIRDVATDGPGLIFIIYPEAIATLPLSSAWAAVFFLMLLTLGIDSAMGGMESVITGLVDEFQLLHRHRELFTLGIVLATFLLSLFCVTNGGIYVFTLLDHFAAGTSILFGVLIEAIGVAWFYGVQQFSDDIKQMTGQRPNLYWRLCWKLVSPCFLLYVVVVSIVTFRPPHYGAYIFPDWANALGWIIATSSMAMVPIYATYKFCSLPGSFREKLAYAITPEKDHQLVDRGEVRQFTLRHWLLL

Structure (SMILES)	pKi [1]	SUV [2]	Ratio [3]	Ratio [4]	Ratio [5]	Ratio [6]	Stability [7]
COC(=O)[C@H]1[C@@H](c2ccc(C)cc2)C[C@@H]2CC[C@H]1N2C/C=C/I	7.80	–	–	–	–	–	–
Cc1ccc([C@H]2C[C@@H]3CC[C@H]([C@H]2C(=O)OCC[18F])N3C/C=C/I)cc1	–	540%	7.5	7.9	1.4	1.3	91%
Cc1ccc([C@H]2C[C@@H]3CC[C@H]([C@H]2C(=O)OCCF)N3C/C=C/I)cc1	7.92	–	–	–	–	–	–
